The source of these data is patent publication US20250282794A1 (CURADEV PHARMA LTD, priority 2022, published 2025).

What is called IC50 is the concentration needed to halve the response being measured.

For this assay, the target named is recombinant full length HPK-1 enzyme (Homo sapiens (Human), UniProt Q92918). Briefly: HPK-1 biochemical enzyme assay (ADP-Glo kinase inhibition). Conditions: recombinant full length HPK-1 6.8 nM, 10 μM ATP, 12.5 μM MBP, 30 mins at 25° C. Put shortly: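 ADP-Glo readout of ADP formed after a 30 min, 25° C. reaction of 6.8 nM full-length HPK-1 with swine myelin basic protein (12.5 μM) and ATP (10 μM) in Tris pH 7.4 buffer with MgCl2, DTT and BSA. Ten compound concentrations tested; percent inhibition set against vehicle (0%) and no-enzyme (100%) controls gave IC50.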

A value given as a limit tells only on which side of the number the result lay.

Sequence of recombinant full length HPK-1 enzyme (Q92918 whole entry, species assumed): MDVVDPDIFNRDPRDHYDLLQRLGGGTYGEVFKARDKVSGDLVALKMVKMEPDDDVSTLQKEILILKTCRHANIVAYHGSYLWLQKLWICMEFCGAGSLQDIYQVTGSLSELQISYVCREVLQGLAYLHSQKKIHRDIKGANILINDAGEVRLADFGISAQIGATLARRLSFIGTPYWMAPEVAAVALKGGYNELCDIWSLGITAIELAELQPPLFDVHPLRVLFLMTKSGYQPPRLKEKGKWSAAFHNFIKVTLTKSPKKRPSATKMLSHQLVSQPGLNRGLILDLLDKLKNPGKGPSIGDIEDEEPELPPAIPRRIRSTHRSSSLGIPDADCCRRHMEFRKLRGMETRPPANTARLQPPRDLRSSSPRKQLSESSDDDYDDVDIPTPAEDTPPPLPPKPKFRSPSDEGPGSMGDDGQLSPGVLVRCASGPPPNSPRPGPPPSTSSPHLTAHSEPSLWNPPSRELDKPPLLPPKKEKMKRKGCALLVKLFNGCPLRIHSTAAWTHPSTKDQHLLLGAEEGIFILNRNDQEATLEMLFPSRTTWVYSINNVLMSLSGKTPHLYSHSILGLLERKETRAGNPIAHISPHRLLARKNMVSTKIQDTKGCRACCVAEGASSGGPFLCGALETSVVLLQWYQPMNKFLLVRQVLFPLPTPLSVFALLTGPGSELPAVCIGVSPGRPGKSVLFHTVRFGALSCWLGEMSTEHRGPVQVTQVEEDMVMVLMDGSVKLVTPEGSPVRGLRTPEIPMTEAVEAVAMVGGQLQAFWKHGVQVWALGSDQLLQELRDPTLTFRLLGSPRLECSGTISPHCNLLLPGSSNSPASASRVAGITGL

As for `Cc1c(Nc2cc[nH]c(=O)c2C(=O)Nc2ccc(N3CCN(c4nccn4C)CC3)cc2)cnc2c1NCCO2` [Example 366, N-(4-(4-(1-methyl-1H-imidazol-2-yl)piperazin-1-yl)phenyl)-4-((8-methyl-2,3-dihydro-1H-pyrido[2,3-b][1,4]oxazin-7-yl)amino)-2-oxo-1,2-dihydropyridine-3-carboxamide], the IC50 is ≤ 10 nM.

On to `Cc1c(Nc2cc[nH]c(=O)c2C(=O)Nc2ccc(N3CCN(c4cscn4)CC3)cc2)cnc2c1NCCO2` [Example 367, 4-((8-methyl-2,3-dihydro-1H-pyrido[2,3-b][1,4]oxazin-7-yl)amino)-2-oxo-N-(4-(4-(thiazol-4-yl)piperazin-1-yl)phenyl)-1,2-dihydropyridine-3-carboxamide], for which the IC50 is 10 to 100 nM.

As to `CCOCCN1CCN(c2ccc(NC(=O)c3c(Nc4cnc5c(c4C)NCCO5)cc[nH]c3=O)cc2)CC1` [Example 368, N-(4-(4-(2-ethoxyethyl)piperazin-1-yl)phenyl)-4-((8-methyl-2,3-dihydro-1H-pyrido[2,3-b][1,4]oxazin-7-yl)amino)-2-oxo-1,2-dihydropyridine-3-carboxamide], the half-inhibitory concentration (IC50) was in the range of 10 to 100 nM.

For `COC(C)CN1CCN(c2ccc(NC(=O)c3c(Nc4cnc5c(c4C)NCCO5)cc[nH]c3=O)cc2)CC1` (stereo not drawn) [Example 369, N-(4-(4-(2-methoxypropyl)piperazin-1-yl)phenyl)-4-((8-methyl-2,3-dihydro-1H-pyrido[2,3-b][1,4]oxazin-7-yl)amino)-2-oxo-1,2-dihydropyridine-3-carboxamide], the IC50 is 10 to 100 nM.

Take `Cc1c(Nc2cc[nH]c(=O)c2C(=O)Nc2ccc(N3CCN(CC(C)C)CC3)cc2)cnc2c1NCCO2` [Example 370, N-(4-(4-isobutylpiperazin-1-yl)phenyl)-4-((8-methyl-2,3-dihydro-1H-pyrido[2,3-b][1,4]oxazin-7-yl)amino)-2-oxo-1,2-dihydropyridine-3-carboxamide]: the IC50 was ≤ 10 nM.

As for `Cc1c(Nc2cc[nH]c(=O)c2C(=O)Nc2ccc(N3CCN(c4nccs4)CC3)cc2)cnc2c1NCCO2` [Example 371, 4-((8-Methyl-2,3-dihydro-1H-pyrido[2,3-b][1,4]oxazin-7-yl)amino)-2-oxo-N-(4-(4-(thiazol-2-yl)piperazin-1-yl)phenyl)-1,2-dihydropyridine-3-carboxamide], the IC50 is 10 to 100 nM.

For `Cc1c(Nc2cc[nH]c(=O)c2C(=O)Nc2ccc(N3CCN(C(=O)C4CC4)CC3)cc2)cnc2c1NCC(C)O2` (stereo not drawn) [Example 372, N-(4-(4-(cyclopropanecarbonyl)piperazin-1-yl)phenyl)-4-((3,8-dimethyl-2,3-dihydro-1H-pyrido[2,3-b][1,4]oxazin-7-yl)amino)-2-oxo-1,2-dihydropyridine-3-carboxamide], the IC50 is ≤ 10 nM.

In the case of `Cc1c(Nc2cc[nH]c(=O)c2C(=O)Nc2ccc(N3CCN(C(=O)C4CN(C)C4)CC3)cc2)cnc2c1NCCO2` [Example 373, 4-((8-methyl-2,3-dihydro-1H-pyrido[2,3-b][1,4]oxazin-7-yl)amino)-N-(4-(4-(1-methylazetidine-3-carbonyl)piperazin-1-yl)phenyl)-2-oxo-1,2-dihydropyridine-3-carboxamide], the concentration for half-maximal inhibition (IC50) was in the range of 10 to 100 nM.

Consider `Cc1c(Nc2cc[nH]c(=O)c2C(=O)Nc2ccc(N3CCN4C(=O)CCCC4C3)cc2)cnc2c1NCCO2` (stereo not drawn) [Example 374, 4-((8-methyl-2,3-dihydro-1H-pyrido[2,3-b][1,4]oxazin-7-yl)amino)-2-oxo-N-(4-(6-oxooctahydro-2H-pyrido[1,2-a]pyrazin-2-yl)phenyl)-1,2-dihydropyridine-3-carboxamide], for which the IC50 is 10 to 100 nM.

Regarding `Cc1c(Nc2cc[nH]c(=O)c2C(=O)Nc2ccc(N3CCC(O)(CN(C)C)CC3)cc2)cnc2c1NCCO2` [Example 375, N-(4-(4-((dimethylamino)methyl)-4-hydroxypiperidin-1-yl)phenyl)-4-((8-methyl-2,3-dihydro-1H-pyrido[2,3-b][1,4]oxazin-7-yl)amino)-2-oxo-1,2-dihydropyridine-3-carboxamide], the IC50 is ≤ 10 nM.

In the case of `Cc1c(Nc2cc[nH]c(=O)c2C(=O)Nc2ccc(N3CCN(C4CC4)CC3)c(F)c2)cnc2c1NCCO2` [Example 376, N-(4-(4-cyclopropylpiperazin-1-yl)-3-fluorophenyl)-4-((8-methyl-2,3-dihydro-1H-pyrido[2,3-b][1,4]oxazin-7-yl)amino)-2-oxo-1,2-dihydropyridine-3-carboxamide], the IC50 was ≤ 10 nM.

`Cc1c(Nc2cc[nH]c(=O)c2C(=O)Nc2ccc(N3CCN4C(=O)N(C)CC4C3)cc2)cnc2c1NCCO2` (stereo not drawn) [Example 377, 4-((8-methyl-2,3-dihydro-1H-pyrido[2,3-b][1,4]oxazin-7-yl)amino)-N-(4-(2-methyl-3-oxohexahydroimidazo[1,5-a]pyrazin-7(1H)-yl)phenyl)-2-oxo-1,2-dihydropyridine-3-carboxamide]: the IC50 is ≤ 10 nM.

Consider `Cc1c(Nc2cc[nH]c(=O)c2C(=O)Nc2ccc(N3CCN(C(C)c4ccn[nH]4)CC3)cc2)cnc2c1NCCO2` (stereo not drawn) [Example 378, N-(4-(4-(1-(1H-pyrazol-5-yl)ethyl)piperazin-1-yl)phenyl)-4-((8-methyl-2,3-dihydro-1H-pyrido[2,3-b][1,4]oxazin-7-yl)amino)-2-oxo-1,2-dihydropyridine-3-carboxamide], for which the IC50 was ≤ 10 nM.

Turning to `Cc1c(Nc2cc[nH]c(=O)c2C(=O)Nc2ccc(N3CCN(C4COC4)CC3)c(F)c2)cnc2c1NCCO2` [Example 379, N-(3-fluoro-4-(4-(oxetan-3-yl)piperazin-1-yl)phenyl)-4-((8-methyl-2,3-dihydro-1H-pyrido[2,3-b][1,4]oxazin-7-yl)amino)-2-oxo-1,2-dihydropyridine-3-carboxamide], the IC50 was ≤ 10 nM.

In the case of `Cc1c(Nc2cc[nH]c(=O)c2C(=O)Nc2ccc(N3CCN(C4(C)COC4)CC3)cc2)cnc2c1NCCO2` [Example 380, 4-((8-methyl-2,3-dihydro-1H-pyrido[2,3-b][1,4]oxazin-7-yl)amino)-N-(4-(4-(3-methyloxetan-3-yl)piperazin-1-yl)phenyl)-2-oxo-1,2-dihydropyridine-3-carboxamide], the IC50 fell in the range of 10 to 100 nM.

As to `Cc1c(Nc2cc[nH]c(=O)c2C(=O)Nc2ccc(N3CCC(N(C)C(=O)C(C)C)C3)cc2)cnc2c1NCCO2` (stereo not drawn) [Example 381, 4-((8-methyl-2,3-dihydro-1H-pyrido[2,3-b][1,4]oxazin-7-yl)amino)-N-(4-(3-(N-methylisobutyramido)pyrrolidin-1-yl)phenyl)-2-oxo-1,2-dihydropyridine-3-carboxamide], the IC50 lay in the range of 10 to 100 nM.

With `Cc1c(Nc2cc[nH]c(=O)c2C(=O)Nc2ccc(N3CCC4(CC3)CC4)cc2)cnc2c1NCCO2` [Example 382, N-(4-(6-azaspiro[2.5]octan-6-yl)phenyl)-4-((8-methyl-2,3-dihydro-1H-pyrido[2,3-b][1,4]oxazin-7-yl)amino)-2-oxo-1,2-dihydropyridine-3-carboxamide], the IC50 is 10 to 100 nM.

On to `Cc1c(Nc2cc[nH]c(=O)c2C(=O)Nc2ccc(N3CCN(C(C)(C)C)CC3)cc2)cnc2c1NCCO2` [Example 383, N-(4-(4-(tert-butyl)piperazin-1-yl)phenyl)-4-((8-methyl-2,3-dihydro-1H-pyrido[2,3-b][1,4]oxazin-7-yl)amino)-2-oxo-1,2-dihydropyridine-3-carboxamide], for which the IC50 was ≤ 10 nM.
